Results: patent US9101539B2, “Intranasal pharmaceutical compositions with improved pharmacokinetics” (SHIN NIPPON BIOMEDICAL LABORATORIES, LTD., priority 2009, dated 2015)
One block for each compound: values may come before it.

How the values were obtained:
[1] = Zolmitriptan pharmacokinetics (plasma concentration versus time) in rhesus monkeys; type: in vivo; conditions: 5 mg/animal; for Tmax: intranasal dry powder, n=2
Protocol: The pharmacokinetics of a zolmitriptan liquid nasal spray and a dry powder formulation were studied in two groups of rhesus monkeys. One group, n=2, was administered a nasal spray of zolmitriptan (Zomig®, 5 mg/100 μl in an aqueous buffered solution). A second, n=2, was administered intranasal zolmitriptan freebase with a particle size of <15 μm. The administered dose was 5 mg/animal.
One group, n=2, was administered intranasal zolmitriptan freebase with a particle size of <15 μm. Administered dose was 5 mg/animal. […] Administered dose was 5 mg/animal.

[2] = in vivo; conditions: rhesus monkey, inhaled or intranasal
Protocol: Blood was obtained at 10, 20, 30, 60, 120, 240, and 480 minutes post-administration from the monkeys administered the solid dosage form. For the monkeys treated with the nasal spray, blood was obtained 5, 10, 20, 30, 60, 120, 240, and 480 minutes post-treatment.
Blood was obtained at 5, 10, 20, 30, 60, 120, and 240 minutes post-administration.
Administered dose was 6 mg/animal. […] Blood was obtained at 5, 10, 20, 30, 60, 120, and 240 minutes post-administration.
(§1) Administered dose was 6 mg/animal. […] Administered dose was 6 mg/animal. Blood was obtained at 5, 10, 20, 30, 60, 120, and 240 minutes post-administration.
Total dose was 6 mg/animal. Blood was obtained at 5, 10, 20, 30, 60, 120, and 240 minutes post-administration.
as §1, §1
(§2) Administered dose was 6 mg/animal. […] Administered dose was 6 mg/animal. […] Blood was obtained at 5, 10, 20, 30, 60, 120, and 240 minutes post-administration.
as §2

[3] = intranasal dry powder <15 μm, versus Zomig nasal spray

BA compared with the liquid spray [1, 3]: significantly increased
Cmax compared with the liquid spray [1, 3]: significantly increased
Tmax ([1]; 50% of the particles <15 μm and 50% 38 μm-100 μm): 20 min
Tmax ([1]; particle size <15 μm): 10 min
Structure (SMILES): CN(C)CCc1c[nH]c2ccc(C[C@H]3COC(=O)N3)cc12 [zolmitriptan freebase]

Cmax ([2]; 6 mg, Cmax): 696 ng/mL
Tmax ([2]; 6 mg, Tmax): 7.5 min
Structure (SMILES): CNS(=O)(=O)Cc1ccc2[nH]cc(CCN(C)C)c2c1 [sumatriptan succinate]

Cmax among the formulations tested that contained freebase [2]: highest
Structure (SMILES): CNS(=O)(=O)Cc1ccc2[nH]cc(CCN(C)C)c2c1 [sumatriptan freebase]
